Experimental data from patent US8470850B2, “Inhibitors of VEGF receptor and HGF receptor signalling” (MethylGene Inc., priority 2004, dated 2013).

What was measured:
VEGF receptor KDR = target: T1, VEGF receptor KDR (Homo sapiens, UniProt P35968); assay: In vitro receptor tyrosine kinase assay (DELFIA), VEGF receptor KDR; type: biochemical; conditions: ATP 0.6 uM; enzyme 5 nM; read-out: VEGF (enz.) (IC50)
T1 construct: made in house; host or cells: Sf9 cells (Spodoptera frugiperda), recombinant baculovirus
Source text: In the case of VEGF receptor KDR a 1.6-kb cDNA corresponding to the catalytic domain of VEGFR2 or KDR (Genbank accession number AF035121 amino acid 806 to 1356) was cloned into the Pst I site of the pDEST20 gateway vector (Invitrogen) for the production of a GST-tagged version of that enzyme.
The GST-VEGFR2806-1356 protein was expressed in Sf9 cells (Spodoptera frugiperda) upon infection with recombinant baculovirus construct.
The supernatant was loaded onto a GST-agarose column (Sigma) equilibrated with PBS pH 7.3. Following a four column volume (CV) wash with PBS pH 7.3+1% Triton X-100 and 4 CV wash with buffer B (50 mM Tris pH 8.0, 20% glycerol and 100 mM NaCl), bound proteins were step eluted with 5 CV of buffer B supplemented with 5 mM DTT and 15 mM glutathion. […] Final GST-VEGFR2806-1356 protein preparations concentrations were about 0.7 mg/ml with purity approximating 70%.

[1] = target: TPR-MET fusion protein (MNNGHOS cell line) (Homo sapiens, UniProt P08581); assay: C-Met phosphorylation cell-based assay; conditions: read-out: C-Met cell-based Y1230-34-35 tpr-met inhibition (IC50); MNNGHOS cells; compounds 3 hours prior to cell lysis
Method: This test measures the ability of compounds to inhibit HGF stimulated auto-phosphorylation of the c-Met/HGF receptor itself in a whole cell system.
MNNGHOS cell line expressing TPR-MET fusion protein were purchased from ATCC.
Inhibitor of c-Met formulated as 30 mM stocks in DMSO. For MNNGHOS treatments, cells, compounds were added to tissue culture media at indicated doses for 3 hours prior to cell lysis.
Lysate were separated on 5-20% PAGE-SDS and immunoblots were performed using Immobilon P polyvinylidene difluoride membranes (Amersham) according to the manufacturer's instructions for handling. The blots were washed in Tris-buffered saline with 0.1% Tween 20 detergent (TBST). […] Signal was quantitated by densitometry on Alpha-Imager.

[2] = target: recombinant human c-Met/HGF receptor (Homo sapiens, UniProt P08581); assay: In vitro receptor tyrosine kinase assay (DELFIA), c-Met/HGF receptor; conditions: read-out: C-Met (enz.) (IC50); ATP 10 uM; enzyme 25 nM
Source text: These tests measure the ability of compounds to inhibit the enzymatic activity of recombinant human c-Met/HGF receptor and VEGF receptor enzymatic activity.
This construct was used to generate recombinant baculovirus using the Bac-N-Blue™ system according to the manucfacturer's instructions (Invitrogen)
The c-Met IC protein was expressed in Hi-5 cells (Trichoplusia Ni) upon infection with recombinant baculovirus construct. Briefly, Hi-5 cells grown in suspension and maintained in serum-free medium (Sf900 II supplemented with gentamycin) at a cell density of about 2×10^6 cells/ml were infected with the abovementioned viruses at a multiplicity of infection (MOI) of 0.2 during 72 hours at 27° C. with agitation at 120 rpm on a rotary shaker. […] Cell pellets were frozen at −80° C. until purification was performed.
All steps described in cell extraction and purification were performed at 4° C. Frozen Hi-5 cell pellets infected with the C-Met IC recombinant baculovirus were thawed and gently resuspended in Buffer A (20 mM Tris pH 8.0, 10% glycerol, 1 μg/ml pepstatin, 2 μg/ml Aprotinin and leupeptin, 50 μg/ml PMSF, 50 μg/ml TLCK and 10 μM E64, 0.5 mM DTT and 1 mM Levamisole) using 3 mL of buffer per gram of cells. The suspension was Dounce homogenized after which it was centrifuged at 22500 g, 30 min., 4° C. The supernatant (cell extract) was used as starting material for purification of c-Met IC.
The supernatant was loaded onto a QsepharoseFF column (Amersham Biosciences) equilibrated with Buffer B (20 mM Tris pH 8.0, 10% glycerol) supplemented with 0.05M NaCl. […]
Inhibition of c-Met/HGF receptor and VEGFR/KDR was measured in a DELFIA™ assay (Perkin Elmer). […] Phosphorylated product was detected by incubation with Europium-labeled anti-phosphotyrosine MoAb. After washing the plates, bound MoAb was detected by time-resolved fluorescence in a Gemini SpectraMax reader (Molecular Devices).

U87MG = assay: In vivo solid tumor disease model, U87MG xenograft; parameters: species or system mice; conditions: 15 mg/kg once daily, IP, vehicle DMSO, 10 days
Source text: This test measures the capacity of compounds to inhibit solid tumor growth.
Tumor xenografts were established in the flank of female athymic CD1 mice (Charles River Inc.), by subcutaneous injection of 1×10^6U87, A431 or SKLMS cells/mouse. Once established, tumors were then serially passaged s.c. in nude mice hosts. Tumor fragments from these host animals were used in subsequent compound evaluation experiments. For compound evaluation experiments female nude mice weighing approximately 20 g were implanted s.c. by surgical implantation with tumor fragments of ˜30 mg from donor tumors. When the tumors were approximately 100 mm^3 in size (˜7-10 days following implantation), the animals were randomized a separated into treatment and control groups. Each group contained 6-8 tumor-bearing mice, each of which was ear-tagged and followed individually throughout the experiment
Mice were weighed and tumor measurements are taken by calipers three times weekly, starting on Day 1. These tumor measurements were converted to tumor volume by the well-known formula (L+W/4)^34/3π. The experiment was terminated when the control tumors reached a size of approximately 1500 mm^3. […] In addition to tumor volumes, body weight of animals were monitored twice weekly for up to 3 weeks.

Chain of TPR-MET fusion protein (MNNGHOS cell line) (P08581 with tags, fused parts or gaps): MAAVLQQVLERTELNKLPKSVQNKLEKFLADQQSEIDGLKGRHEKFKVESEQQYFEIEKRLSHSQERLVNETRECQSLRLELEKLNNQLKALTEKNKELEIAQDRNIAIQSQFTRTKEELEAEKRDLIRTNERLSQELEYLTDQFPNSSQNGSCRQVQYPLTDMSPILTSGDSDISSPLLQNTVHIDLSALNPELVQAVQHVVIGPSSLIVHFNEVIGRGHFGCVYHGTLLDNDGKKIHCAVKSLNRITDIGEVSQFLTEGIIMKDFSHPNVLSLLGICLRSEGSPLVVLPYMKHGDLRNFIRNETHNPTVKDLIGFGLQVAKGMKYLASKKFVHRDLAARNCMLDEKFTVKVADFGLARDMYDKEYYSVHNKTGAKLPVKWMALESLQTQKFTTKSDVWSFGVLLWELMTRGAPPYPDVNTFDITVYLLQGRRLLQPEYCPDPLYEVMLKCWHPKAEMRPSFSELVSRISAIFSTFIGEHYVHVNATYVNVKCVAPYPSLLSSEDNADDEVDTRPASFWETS
T1 sequence (P35968 806-1356): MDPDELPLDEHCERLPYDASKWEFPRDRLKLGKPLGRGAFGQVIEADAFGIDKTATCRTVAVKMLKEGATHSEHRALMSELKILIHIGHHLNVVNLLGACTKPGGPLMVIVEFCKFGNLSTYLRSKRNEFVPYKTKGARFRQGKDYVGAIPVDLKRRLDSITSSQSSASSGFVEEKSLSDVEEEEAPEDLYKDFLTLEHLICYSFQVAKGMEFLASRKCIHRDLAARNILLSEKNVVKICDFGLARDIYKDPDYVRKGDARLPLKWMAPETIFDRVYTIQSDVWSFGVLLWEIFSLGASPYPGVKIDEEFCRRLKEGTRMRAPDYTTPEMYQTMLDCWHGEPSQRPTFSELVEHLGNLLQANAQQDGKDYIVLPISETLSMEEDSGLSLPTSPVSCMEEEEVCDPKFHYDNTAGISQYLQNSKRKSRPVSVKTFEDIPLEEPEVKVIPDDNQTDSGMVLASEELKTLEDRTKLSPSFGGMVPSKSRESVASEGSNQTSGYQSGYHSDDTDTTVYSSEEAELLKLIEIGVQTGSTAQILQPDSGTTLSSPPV
Chain of recombinant human c-Met/HGF receptor (P08581 1078-1337): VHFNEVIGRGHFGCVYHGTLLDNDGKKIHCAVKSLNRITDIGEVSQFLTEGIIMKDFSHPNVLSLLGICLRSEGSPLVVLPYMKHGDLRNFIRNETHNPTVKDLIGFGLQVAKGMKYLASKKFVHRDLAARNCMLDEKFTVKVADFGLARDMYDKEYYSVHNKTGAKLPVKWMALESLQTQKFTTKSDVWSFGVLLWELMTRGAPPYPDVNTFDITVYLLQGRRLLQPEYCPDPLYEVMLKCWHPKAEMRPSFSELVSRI

| Compound | IC50 (VEGF receptor KDR) [nM] | IC50 [1] [nM] | IC50 [2] [nM] | Tumor Growth Inhibition (%) (U87MG) |
| --- | --- | --- | --- | --- |
| O=C(Cc1ccccc1)NC(=S)Nc1ccc(Oc2ccnc3cc(C(=O)N4CCOCC4)sc23)c(F)c1 [Example 3] | 250 to 500 | 50 to 250 | 50 to 250 | – |
| CN1CCN(C(=O)c2cc3ncnc(Oc4ccc(NC(=S)NC(=O)Cc5ccccc5)cc4F)c3s2)CC1 [Example 24, 1-(4-(6-(4-N-Methylpiperazylcarbamoyl)thieno[3,2-d]pyrimidin-4-yloxy)-3-fluorophenyl)-3-(2-phenylacetyl)thiourea] | 250 to 500 | > 500 | 50 to 250 | – |
| Cn1cnnc1-c1cc2nccc(Oc3ccc(NC(=S)NC(=O)Cc4ccccc4)cc3F)c2s1 [Example 75, N-(3-Fluoro-4-(2-(4-methyl-4H-1,2,4-triazol-3-yl)thieno[3,2-b]pyridin-7-yloxy)phenylcarbamothioyl)-2-phenylacetamide] | – | – | – | d (% TGI in the range of 0-24) |
| Methyl 2-(1-(4-(2-(carbamoyl)thieno[3,2-b]pyridin-7-yloxy)-3-fluorophenyl)-3-(2-phenylacetyl)thioureido)propanoate [Example 11] | > 500 | 50 to 250 | 50 to 250 | – |
